One test relates to Aβ1-42. Description: Measurement of Aβ1-42 in culture medium of 7W WT APP751 CHO cells by ELISA. It counts as cell-based, Chinese hamster. The settings on record: for Aβ1-42 (% of control): CHO cells that overexpress APP751, zero = below the detection limit of the assay; for activity at 5 µM: Cricetulus griseus, Table 1, 5 μM test compound, CHO cells stably transfected with human APP751, culture medium, ELISA, control DMSO, 0 = no detectable amount, read-out: Aβ1-42 (% of control). For orientation: ELISA stands for enzyme-linked immunosorbent assay.

In the next test the test system is Aβ1-40. Briefly: Measurement of Aβ1-40 in culture medium of 7W WT APP751 CHO cells by ELISA. It is filed as cell-based, Chinese hamster. The settings on record: for Aβ1-40 (% of control): CHO cells that overexpress APP751, zero = below the detection limit of the assay; for activity at 5 µM: Cricetulus griseus, Table 1, 5 μM test compound, CHO cells stably transfected with human APP751, culture medium, ELISA, control DMSO, 0 = no detectable amount.
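Note: 5 µM test compound but RI-coded compounds at 10 µM for 24 hours.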

With `CC1=C(C(=O)Nc2ccccc2C)C(c2cccs2)C(C#N)=C(SCC(=O)Nc2ccc(C)c(Cl)c2)N1` (stereo not shown) [ST050840, N-(3-chloro-4-methylphenyl)-2-{3-cyano-6-methyl-5-[N-(2-methylphenyl)carbamoyl]-4-(2-thienyl)(2-1,4-dihydropyridylthio)}acetamide], the “Aβ1-42 (% of control)” value in the test on Aβ1-42 is listed as 38.84 % of control. The “Aβ1-40 (% of control)” value with Aβ1-40 is listed as 52.3 % of control.

For the molecule `CC1=C(C(=O)Nc2ccccc2)C(c2cccs2)C(C#N)=C(SCC(=O)Nc2ccc(C)c(Cl)c2)N1` (stereo not shown) [ST050842, N-(3-chloro-4-methylphenyl)-2-[3-cyano-6-methyl-5-(N-phenylcarbamoyl)-4-(2-thienyl)(2-1,4-dihydropyridylthio)]acetamide], the “Aβ1-42 (% of control)” value in the test with Aβ1-42 was 52.06 % of control. Moreover, the “Aβ1-40 (% of control)” value with Aβ1-40 is given as 37.46 % of control.

Take `N#CC1=C(N)NC(SCC(N)=O)=C(C#N)C1c1ccccc1Cl` (stereo not shown) [ST050859, 2-[6-amino-4-(2-chlorophenyl)-3,5-dicyano-2-1,4-dihydropyridylthio]acetamide]: the “Aβ1-42 (% of control)” value with Aβ1-42 was 35.47 % of control. Further, the “Aβ1-40 (% of control)” value in the test with Aβ1-40 is recorded as 75.54 % of control.

As for `COC(=O)CSC1=C(C#N)C(c2ccc(Cl)cc2)C(C(=O)OC(C)(C)C)=C(C)N1` (stereo not shown) [ST050862, methyl 2-{5-[(tert-butyl)oxycarbonyl]-4-(4-chlorophenyl)-3-cyano-6-methyl-2-1,4-dihydropyridylthio}acetate], the “Aβ1-42 (% of control)” value in the test on Aβ1-42 is given as 56.21 % of control. In addition, the “Aβ1-40 (% of control)” value with Aβ1-40 is on record as 65.24 % of control.

Regarding `CSC1=C(C#N)C(c2ccc(Cl)cc2)C(C(=O)OC(C)(C)C)=C(C)N1` (stereo not shown) [ST050983, tert-butyl 4-(4-chlorophenyl)-5-cyano-2-methyl-6-methylthio-1,4-dihydropyridine-3-carboxylate], in the test with Aβ1-42, the “Aβ1-42 (% of control)” value was 0 % of control. Also, the “Aβ1-40 (% of control)” value in the test on Aβ1-40 is 51.3 % of control.

As to `CC1=C(C(=O)OC(C)(C)C)C(c2ccc(Cl)cc2)C(C#N)=C(SCC(=O)Nc2ccc(C)cc2)N1` (stereo not shown) [ST051142, tert-butyl 4-(4-chlorophenyl)-5-cyano-2-methyl-6-{[N-(4-methylphenyl)carbamoyl]methylthio}-1,4-dihydropyridine-3-carboxylate], the “Aβ1-42 (% of control)” value in the test with Aβ1-42 is recorded as 46.06 % of control. Also, in the test on Aβ1-40, the “Aβ1-40 (% of control)” value is on record as 94.85 % of control.

Take `CC1=C(C(=O)Nc2ccc(Cl)cc2)C(c2ccccc2)C(C#N)=C(SCC(=O)Nc2cccc(C)c2)N1` (stereo not shown) [ST051153, 2-{5-[N-(4-chlorophenyl)carbamoyl]-3-cyano-6-methyl-4-phenyl(2-1,4-dihydropyridylthio)}-N-(3-methylphenyl)acetamide]: in the test on Aβ1-42, the “Aβ1-42 (% of control)” value is recorded as 0 % of control. In addition, the “Aβ1-40 (% of control)” value in the test on Aβ1-40 was 4.933 % of control.

For the molecule `CC1=C(C(=O)Nc2ccccc2C)C(c2ccco2)C(C#N)=C(SCC(=O)Nc2cccc(Cl)c2C)N1` (stereo not shown) [ST051156, N-(3-chloro-2-methylphenyl)-2-{3-cyano-4-(2-furyl)-6-methyl-5-[N-(2-methylphenyl)carbamoyl](2-1,4-dihydropyridylthio)}acetamide], the “Aβ1-42 (% of control)” value in the test on Aβ1-42 was 68.02 % of control. In addition, the “Aβ1-40 (% of control)” value with Aβ1-40 was 86.64 % of control.

Regarding `CCOc1ccc(NC(=O)CSC2=C(C#N)C(c3ccco3)C(C(=O)Nc3ccccc3C)=C(C)N2)cc1` (stereo not shown) [ST051158, 2-{3-cyano-4-(2-furyl)-6-methyl-5-[N-(2-methylphenyl)carbamoyl](2-1,4-dihydropyridylthio)}-N-(4-ethoxyphenyl)acetamide], the “Aβ1-42 (% of control)” value in the test with Aβ1-42 is 15.87 % of control. The “Aβ1-40 (% of control)” value with Aβ1-40 is listed as 17.68 % of control.

Consider `Cc1c(Cl)cccc1NC(=O)CSC1=C(C#N)C(c2cccs2)C2=C(CC(C)(C)CC2=O)N1` (stereo not shown) [ST051161, N-(3-chloro-2-methylphenyl)-2-(3-cyano-7,7-dimethyl-5-oxo-4-(2-thienyl)(2-1,4,6,7,8-pentahydroquinolylthio))acetamide], for which the activity at 5 µM was determined as 25.4% with Aβ1-42 and 13% with Aβ1-40.

On to `COC(=O)C1=CN(C2CC2)C=C(C(=O)OC)C1c1cc2c(cc1Cl)OCO2` [ST051458, methyl 4-(6-chloro(2H-benzo[d]1,3-dioxolan-5-yl))-1-cyclopropyl-5-(methoxycarbonyl)-1,4-dihydropyridine-3-carboxylate], for which the “Aβ1-42 (% of control)” value with Aβ1-42 is reported as 59.9 % of control. For the same molecule, the “Aβ1-40 (% of control)” value in the test on Aβ1-40 is listed as 77.81 % of control.

Take `COC(=O)C1=CN(CC2CCCO2)C=C(C(=O)OC)C1c1cccc(OC)c1OC` (stereo not shown) [ST051459, methyl 4-(2,3-dimethoxyphenyl)-5-(methoxycarbonyl)-1-(oxolan-2-ylmethyl)-1,4-dihydropyridine-3-carboxylate]: in the test with Aβ1-42, the “Aβ1-42 (% of control)” value is 85.96 % of control. Further, the “Aβ1-40 (% of control)” value with Aβ1-40 is on record as 70.09 % of control.

As for `COc1cc(OC)c(C2C(C(=O)OC3CCCC3)=C(C)NC3=C2C(=O)CC(c2cccs2)C3)cc1OC` (stereo not shown) [ST051557, cyclopentyl 2-methyl-5-oxo-7-(2-thienyl)-4-(2,4,5-trimethoxyphenyl)-1,4,6,7,8-pentahydroquinoline-3-carboxylate], the activity at 5 µM in the test with Aβ1-42 was 93.1%; in the test with Aβ1-40, 57.3%.

On to `CC1=C(C(=O)OCC(C)C)C(c2ccccc2F)C2=C(CC(c3cccs3)CC2=O)N1` (stereo not shown) [ST051566, 2-methylpropyl 4-(2-fluorophenyl)-2-methyl-5-oxo-7-(2-thienyl)-1,4,6,7,8-pentahydroquinoline-3-carboxylate], for which the activity at 5 µM in the test on Aβ1-42 was determined as 96.1%; with Aβ1-40, 63.4%.

As to `CC1=C(C(=O)OC2CCCC2)C(c2ccc(C)o2)C2=C(CC(c3cccs3)CC2=O)N1` (stereo not shown) [ST051567, cyclopentyl 2-methyl-4-(5-methyl(2-furyl))-5-oxo-7-(2-thienyl)-1,4,6,7,8-pentahydroquinoline-3-carboxylate], the activity at 5 µM amounted to 85% with Aβ1-42 and 60.4% in the test on Aβ1-40.

On to `COC(=O)C1=CN(CC2CCCO2)C=C(C(=O)OC)C1c1cccc(Br)c1` (stereo not shown) [ST051569, methyl 4-(3-bromophenyl)-5-(methoxycarbonyl)-1-(oxolan-2-ylmethyl)-1,4-dihydropyridine-3-carboxylate], for which, in the test on Aβ1-42, the “Aβ1-42 (% of control)” value is 72.77 % of control. For the same molecule, the “Aβ1-40 (% of control)” value with Aβ1-40 is 49.02 % of control.

Regarding `CCSCCOC(=O)C1=C(C)NC2=C(C(=O)CC(c3cccs3)C2)C1c1cccc(Cl)c1` (stereo not shown) [ST051570, 2-ethylthioethyl 4-(3-chlorophenyl)-2-methyl-5-oxo-7-(2-thienyl)-1,4,6,7,8-pentahydroquinoline-3-carboxylate], the activity at 5 µM in the test with Aβ1-42 worked out at 93.8%; with Aβ1-40, 31.7%.

On to `COc1ccc(C2C(C(=O)OC3CCCC3)=C(C)NC3=C2C(=O)CC(c2cccs2)C3)c(OC)c1OC` (stereo not shown) [ST051571, cyclopentyl 2-methyl-5-oxo-7-(2-thienyl)-4-(2,3,4-trimethoxyphenyl)-1,4,6,7,8-pentahydroquinoline-3-carboxylate], for which the activity at 5 µM came to 62.1% with Aβ1-42 and 40.4% in the test with Aβ1-40.

Take `CC1=C(C(=O)OCC2CCCO2)C(c2cccc(Cl)c2)C2=C(CC(c3cccs3)CC2=O)N1` (stereo not shown) [ST051818, oxolan-2-ylmethyl 4-(3-chlorophenyl)-2-methyl-5-oxo-7-(2-thienyl)-1,4,6,7,8-pentahydroquinoline-3-carboxylate]: the values for the activity at 5 µM in the test with Aβ1-42 and with Aβ1-40 were 72.9% and 37%, respectively.

For `COc1ccc(C2C(C#N)=C(N)N(c3ccccc3Cl)C3=C2C(=O)CCC3)cc1O` (stereo not shown) [ST051958, 2-amino-1-(2-chlorophenyl)-4-(3-hydroxy-4-methoxyphenyl)-5-oxo-1,4,6,7,8-pentahydroquinoline-3-carbonitrile], the activity at 5 µM in the test on Aβ1-42 is 80.2%; in the test on Aβ1-40, 56.6%.

For the molecule `N#CC1=C(N)N(c2c(F)cccc2F)C2=C(C(=O)CCC2)C1c1ccsc1` (stereo not shown) [ST051960, 2-amino-1-(2,6-difluorophenyl)-5-oxo-4-(3-thienyl)-1,4,6,7,8-pentahydroquinoline-3-carbonitrile], the activity at 5 µM in the test on Aβ1-42 stood at 86.3%; with Aβ1-40, 48.8%.

Turning to `CC1(C)CC(=O)C2=C(C1)N(c1ccc(Br)cc1)C(N)=C(C#N)C2c1ccc(C(C)(C)C)s1` (stereo not shown) [ST052026, 2-amino-4-[5-(tert-butyl)(2-thienyl)]-1-(4-bromophenyl)-7,7-dimethyl-5-oxo-1,4,6,7,8-pentahydroquinoline-3-carbonitrile], the activity at 5 µM in the test with Aβ1-42 is 25.3%; in the test on Aβ1-40, 13.5%.

Take `CC1(C)CC(=O)C2=C(C1)N(c1ccc(Br)cc1F)C(N)=C(C#N)C2c1ccc(Cl)cc1Cl` (stereo not shown) [ST052048, 2-amino-4-(2,4-dichlorophenyl)-1-(4-bromo-2-fluorophenyl)-7,7-dimethyl-5-oxo-1,4,6,7,8-pentahydroquinoline-3-carbonitrile]: the activity at 5 µM in the test with Aβ1-42 stood at 33%; in the test on Aβ1-40, 58.9%.

Consider `CCn1c2ccccc2c2cc(C3C(C(=O)OC4CCCC4)=C(C)NC4=C3C(=O)CC(C)(C)C4)ccc21` (stereo not shown) [ST052173, cyclopentyl 4-(9-ethylcarbazol-3-yl)-2,7,7-trimethyl-5-oxo-1,4,6,7,8-pentahydroquinoline-3-carboxylate], for which the results for the activity at 5 µM with Aβ1-42 and with Aβ1-40 were 32.5% and 64.7%, respectively.

On to `CCn1c2ccccc2c2cc(C3C(C(=O)OCC4CCCO4)=C(C)NC4=C3C(=O)CCC4)ccc21` (stereo not shown) [ST052207, oxolan-2-ylmethyl 4-(9-ethylcarbazol-3-yl)-2-methyl-5-oxo-1,4,6,7,8-pentahydroquinoline-3-carboxylate], for which the activity at 5 µM in the test on Aβ1-42 stood at 59.6%; with Aβ1-40, 52.3%.

As to `CC1=C(C(=O)OCCOc2ccccc2)C(c2ccccc2Br)C2=C(CCCC2=O)N1` (stereo not shown) [ST052219, 2-phenoxyethyl 4-(2-bromophenyl)-2-methyl-5-oxo-1,4,6,7,8-pentahydroquinoline-3-carboxylate], the activity at 5 µM with Aβ1-42 came out at 24.7%; in the test with Aβ1-40, 14%.

Source of the values: patent US20100119599A1 (ARCHER PHARMACEUTICALS, INC., priority 2006, published 2010).
